Test results: the supplement of paper PMC8617591

How the values were obtained:
[1] = test system: Mycobacterium tuberculosis Erdman (autoluminescent); assay: AUC25, normalised area under dose response up to IC25 (three-drug combination) (fraction (0-1)); higher = more potent at low dose
Protocol: (§1)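 DiaMOND equipotent three-drug combination dose responses (10 doses, 1.5- or 2-fold spacing, centred on IC90) against autoluminescent M. tuberculosis Erdman in 8 in vitro models. Read-out is OD600, or luminescence for the intracellular and dormancy models, normalised to untreated wells. Hill-fit Einf, AUC25 and GRinf are potency metrics; FIC50 and FIC90 are total Loewe fractional inhibitory concentrations as log2 (negative = synergy).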

[2] = test system: Mycobacterium tuberculosis Erdman (autoluminescent); assay: total FIC50 (Loewe) at 50% inhibition, three-drug combination (log2); higher = more antagonistic
Protocol: as §1

[3] = test system: Mycobacterium tuberculosis Erdman (autoluminescent); assay: total FIC90 (Loewe) at 90% inhibition, three-drug combination (log2); higher = more antagonistic
Protocol: as §1

[4] = test system: Mycobacterium tuberculosis Erdman (autoluminescent); assay: Einf, fitted maximum growth inhibition of three-drug combination (fraction); higher = stronger maximal inhibition
Protocol: as §1

[5] = test system: Mycobacterium tuberculosis Erdman (autoluminescent); assay: GRinf, maximum normalised growth rate inhibition (three-drug combination) (unitless (-1 to 1)); higher = less effect (negative = killing)
Protocol: as §1

[6] = in vitro model: acidic pH 5.7, time point: constant (~7 days, model-specific)
[7] = in vitro model: acidic pH 5.7, time point: terminal (~4-5 doublings, model-specific)
[8] = in vitro model: butyrate, time point: constant (~7 days, model-specific)
[9] = in vitro model: butyrate, time point: terminal (~4-5 doublings, model-specific)
[10] = in vitro model: cholesterol 0.05 mM, time point: constant (~7 days, model-specific)
[11] = in vitro model: cholesterol 0.05 mM, time point: terminal (~4-5 doublings, model-specific)
[12] = in vitro model: cholesterol-high 0.2 mM, time point: constant (~7 days, model-specific)
[13] = in vitro model: cholesterol-high 0.2 mM, time point: terminal (~4-5 doublings, model-specific)
[14] = in vitro model: dormancy (butyrate + nitrate, low O2), time point: constant (~7 days, model-specific)
[15] = in vitro model: dormancy (butyrate + nitrate, low O2), time point: terminal (~4-5 doublings, model-specific)
[16] = in vitro model: standard 7H9 glycerol, time point: constant = terminal
[17] = in vitro model: valerate, time point: constant (~7 days, model-specific)
[18] = in vitro model: valerate, time point: terminal (~4-5 doublings, model-specific)
[19] = in vitro model: intracellular J774, time point: constant = terminal

CC[C@@H](CO)NCCN[C@@H](CC)CO [ethambutol] + COc1c(N2C[C@@H]3CCCN[C@@H]3C2)c(F)cc2c(=O)c(C(=O)O)cn(C3CC3)c12 [moxifloxacin] + O=[N+]([O-])c1cn2c(n1)OC[C@@H](OCc1ccc(OC(F)(F)F)cc1)C2 [pretomanid]
AUC25 [1, 6]: 0.124 | AUC25 [1, 7]: 0.0788 | AUC25 [1, 8]: 0.0791 | AUC25 [1, 9]: 0.0604 | AUC25 [1, 10]: 0.106 | AUC25 [1, 11]: 0.116 | AUC25 [1, 12]: 0.0657 | AUC25 [1, 13]: 0.0467 | AUC25 [1, 14]: 0.116 | AUC25 [1, 15]: 0.126 | AUC25 [1, 16]: 0.0753 | AUC25 [1, 17]: 0.0943 | AUC25 [1, 18]: 0.0516 | total FIC50 [2, 6]: 0.434 | total FIC50 [2, 7]: 1.03 | total FIC50 [2, 8]: 0.478 | total FIC50 [2, 9]: 0.42 | total FIC50 [2, 10]: 0.987 | total FIC50 [2, 11]: 0.0988 | total FIC50 [2, 12]: 0.925 | total FIC50 [2, 13]: 1.12 | total FIC50 [2, 14]: 0.37 | total FIC50 [2, 15]: -0.414 | total FIC50 [2, 16]: 0.294 | total FIC50 [2, 17]: -0.131 | total FIC50 [2, 18]: 0.26 | total FIC90 [3, 7]: 0.811 | total FIC90 [3, 9]: 0.0737 | total FIC90 [3, 11]: 1.38 | total FIC90 [3, 13]: 1.04 | total FIC90 [3, 15]: 0.703 | total FIC90 [3, 19]: -1.12 | total FIC90 [3, 16]: 0.564 | total FIC90 [3, 18]: -0.798 | Einf [4, 6]: 0.718 | Einf [4, 7]: 0.939 | Einf [4, 8]: 0.94 | Einf [4, 9]: 0.968 | Einf [4, 10]: 0.669 | Einf [4, 11]: 0.927 | Einf [4, 12]: 0.89 | Einf [4, 13]: 1 | Einf [4, 14]: 0.835 | Einf [4, 15]: 0.986 | Einf [4, 19]: 0.999 | Einf [4, 16]: 0.974 | Einf [4, 17]: 0.862 | Einf [4, 18]: 0.929 | GRinf [5, 6]: -0.388 | GRinf [5, 7]: -0.335 | GRinf [5, 8]: -0.0315 | GRinf [5, 9]: -0.039 | GRinf [5, 10]: -0.247 | GRinf [5, 11]: -0.457 | GRinf [5, 12]: -0.187 | GRinf [5, 13]: -0.609 | GRinf [5, 14]: 0.349 | GRinf [5, 15]: -0.335 | GRinf [5, 19]: -0.573 | GRinf [5, 16]: -0.251 | GRinf [5, 17]: -0.00882 | GRinf [5, 18]: 0.0316

CC[C@@H](CO)NCCN[C@@H](CC)CO [ethambutol] + NC(=O)c1cnccn1 [pyrazinamide] + CO[C@H]1/C=C/O[C@@]2(C)Oc3c(C)c(O)c4c(O)c(c(/C=N/N5CCN(C6CCCC6)CC5)c(O)c4c3C2=O)NC(=O)/C(C)=C\C=C\[C@H](C)[C@H](O)[C@@H](C)[C@@H](O)[C@@H](C)[C@H](OC(C)=O)[C@@H]1C [rifapentine]
AUC25 [1, 6]: 0.0954 | AUC25 [1, 7]: 0.0652 | AUC25 [1, 8]: 0.0808 | AUC25 [1, 9]: 0.0667 | AUC25 [1, 10]: 0.116 | AUC25 [1, 11]: 0.11 | AUC25 [1, 12]: 0.0322 | AUC25 [1, 13]: 0.0395 | AUC25 [1, 14]: 0.0922 | AUC25 [1, 15]: 0.116 | AUC25 [1, 16]: 0.0407 | AUC25 [1, 17]: 0.0408 | AUC25 [1, 18]: 0.0268 | total FIC50 [2, 6]: -0.399 | total FIC50 [2, 7]: -0.0475 | total FIC50 [2, 8]: 0.221 | total FIC50 [2, 9]: 0.309 | total FIC50 [2, 11]: 1.58 | total FIC50 [2, 12]: 1.2 | total FIC50 [2, 13]: 1.46 | total FIC50 [2, 14]: -0.0129 | total FIC50 [2, 15]: 0.284 | total FIC50 [2, 16]: 0.158 | total FIC50 [2, 17]: 0.105 | total FIC50 [2, 18]: 0.338 | total FIC90 [3, 9]: -0.154 | total FIC90 [3, 13]: 1.21 | total FIC90 [3, 15]: 1.88 | total FIC90 [3, 19]: -1.88 | total FIC90 [3, 18]: -0.692 | Einf [4, 6]: 0.885 | Einf [4, 7]: 0.98 | Einf [4, 8]: 0.911 | Einf [4, 9]: 0.958 | Einf [4, 10]: 0.659 | Einf [4, 11]: 0.886 | Einf [4, 12]: 0.941 | Einf [4, 13]: 0.999 | Einf [4, 14]: 0.87 | Einf [4, 15]: 0.984 | Einf [4, 19]: 0.977 | Einf [4, 16]: 0.883 | Einf [4, 17]: 0.821 | Einf [4, 18]: 0.909 | GRinf [5, 6]: -0.165 | GRinf [5, 7]: -0.191 | GRinf [5, 8]: 0.0172 | GRinf [5, 9]: 0.025 | GRinf [5, 10]: -0.834 | GRinf [5, 11]: -0.315 | GRinf [5, 12]: -0.414 | GRinf [5, 13]: -0.679 | GRinf [5, 14]: 0.301 | GRinf [5, 15]: -0.233 | GRinf [5, 19]: -0.419 | GRinf [5, 16]: 0.165 | GRinf [5, 17]: 0.114 | GRinf [5, 18]: 0.11
